From article PMC11783400, “Assessment of Potential Drug–Drug Interactions for Novel Oral Melanocortin‐1 Receptor Agonist Dersimelagon” (Pharmacology Research & Perspectives, 2025) come the findings set out here.

One data set addresses T1, MATE1 (Homo sapiens, UniProt Q96FL8).
T1 construct: gene SLC47A1; expressed in HEK293 cells
T1 sequence (Q96FL8 1-570): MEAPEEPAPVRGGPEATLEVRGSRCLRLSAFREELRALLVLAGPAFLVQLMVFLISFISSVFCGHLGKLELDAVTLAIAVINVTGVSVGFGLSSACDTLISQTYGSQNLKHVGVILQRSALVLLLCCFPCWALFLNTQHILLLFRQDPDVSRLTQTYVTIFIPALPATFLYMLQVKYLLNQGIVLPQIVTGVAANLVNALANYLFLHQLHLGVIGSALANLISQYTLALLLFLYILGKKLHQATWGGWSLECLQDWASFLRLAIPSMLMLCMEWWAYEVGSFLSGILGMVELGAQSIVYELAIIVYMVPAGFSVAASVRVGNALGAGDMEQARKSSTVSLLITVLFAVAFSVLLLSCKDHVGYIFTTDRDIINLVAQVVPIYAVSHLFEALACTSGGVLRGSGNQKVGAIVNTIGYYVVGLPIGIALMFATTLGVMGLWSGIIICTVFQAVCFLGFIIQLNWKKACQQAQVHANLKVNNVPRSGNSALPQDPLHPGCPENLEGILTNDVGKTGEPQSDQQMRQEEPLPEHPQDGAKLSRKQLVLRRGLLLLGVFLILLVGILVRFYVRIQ
The data set is described as follows: uptake inhibition in HEK293 cells expressing the transporter. The data set is classed as cell-based. From the text:
uptake inhibition in HEK293 cells expressing the transporter on MATE1

The target of the next data set is T2, OAT1 (Homo sapiens, UniProt Q4U2R8).
T2 construct: gene SLC22A6; expressed in HEK293 cells
T2 sequence (Q4U2R8 1-563): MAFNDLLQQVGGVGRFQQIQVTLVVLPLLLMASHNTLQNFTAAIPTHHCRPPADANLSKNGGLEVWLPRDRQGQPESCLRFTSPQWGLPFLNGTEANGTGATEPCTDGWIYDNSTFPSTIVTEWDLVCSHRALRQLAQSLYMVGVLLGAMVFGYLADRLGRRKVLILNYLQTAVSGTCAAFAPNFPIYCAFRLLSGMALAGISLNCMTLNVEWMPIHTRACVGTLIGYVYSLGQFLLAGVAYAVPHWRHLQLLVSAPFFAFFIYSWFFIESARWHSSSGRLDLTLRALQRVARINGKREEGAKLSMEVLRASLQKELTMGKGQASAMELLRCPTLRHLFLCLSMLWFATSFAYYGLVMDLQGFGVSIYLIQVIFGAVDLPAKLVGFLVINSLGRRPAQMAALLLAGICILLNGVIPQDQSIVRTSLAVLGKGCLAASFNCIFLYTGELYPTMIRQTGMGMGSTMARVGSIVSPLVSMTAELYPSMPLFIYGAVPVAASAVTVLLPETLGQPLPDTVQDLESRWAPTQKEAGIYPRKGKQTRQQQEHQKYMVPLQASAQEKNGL
The data set is described as above. The format is cell-based. From the text: uptake inhibition in HEK293 cells expressing the transporter on OAT1

The target in a further data set is T3, CYP2D6 (Homo sapiens, UniProt P10635).
T3 construct: native enzyme in human liver microsomes
T3 sequence (P10635 whole entry): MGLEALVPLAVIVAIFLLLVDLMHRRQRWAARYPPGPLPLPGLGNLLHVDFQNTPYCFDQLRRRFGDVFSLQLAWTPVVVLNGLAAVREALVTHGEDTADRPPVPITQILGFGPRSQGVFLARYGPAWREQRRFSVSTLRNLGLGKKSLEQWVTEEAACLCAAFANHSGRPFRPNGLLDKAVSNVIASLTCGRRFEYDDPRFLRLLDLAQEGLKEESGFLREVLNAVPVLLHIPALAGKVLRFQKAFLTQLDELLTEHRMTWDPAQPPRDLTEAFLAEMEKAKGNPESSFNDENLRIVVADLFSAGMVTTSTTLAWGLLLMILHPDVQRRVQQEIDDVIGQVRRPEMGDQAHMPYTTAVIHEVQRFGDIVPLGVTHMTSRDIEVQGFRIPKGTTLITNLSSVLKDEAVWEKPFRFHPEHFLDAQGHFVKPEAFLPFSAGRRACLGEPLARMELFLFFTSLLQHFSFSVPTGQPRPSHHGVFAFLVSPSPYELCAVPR
As to the kind of experiment: CYP activity inhibition in human liver microsomes. The format is biochemical. The following applies: read-out: IC50 (μM) / Direct inhibition. The source says: CYP activity inhibition in human liver microsomes on CYP2D6
(Microsomes from liver hold many membrane-bound enzymes, among them those of drug oxidation.)

For a further data set, the target named is T4, CYP2B6 (Homo sapiens, UniProt P20813).
T4 construct: native enzyme in human liver microsomes
T4 sequence (P20813 1-491): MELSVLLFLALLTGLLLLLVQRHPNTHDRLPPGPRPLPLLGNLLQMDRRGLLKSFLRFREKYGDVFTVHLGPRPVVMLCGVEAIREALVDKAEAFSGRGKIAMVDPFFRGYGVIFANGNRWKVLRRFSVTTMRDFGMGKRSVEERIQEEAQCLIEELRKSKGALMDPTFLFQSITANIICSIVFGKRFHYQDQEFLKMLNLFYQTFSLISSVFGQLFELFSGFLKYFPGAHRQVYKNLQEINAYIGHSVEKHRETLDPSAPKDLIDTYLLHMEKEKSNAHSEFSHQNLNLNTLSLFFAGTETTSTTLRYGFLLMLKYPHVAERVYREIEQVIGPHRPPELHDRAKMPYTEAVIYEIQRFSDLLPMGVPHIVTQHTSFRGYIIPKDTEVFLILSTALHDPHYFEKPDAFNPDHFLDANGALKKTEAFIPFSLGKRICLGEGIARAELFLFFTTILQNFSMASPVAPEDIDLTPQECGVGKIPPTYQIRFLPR
The data set is described as follows: CYP activity inhibition in human liver microsomes. The data set is classed as biochemical. To be noted: read-out: IC50 (μM) / Direct inhibition. From the text:
CYP activity inhibition in human liver microsomes on CYP2B6

Another data set has as its target T5, CYP3A4 (Table 1); CYP3A (Homo sapiens, UniProt P08684).
T5 construct: native enzyme in human liver microsomes
As to the kind of experiment: time-dependent inactivation in human liver microsomes. The data set is classed as biochemical. To be noted: read-out: Parameters / K I. From the text: time-dependent inactivation in human liver microsomes on CYP3A4 (Table 1); CYP3A (text)

A further data set concerns the target T6, P‐gp (P‐glycoprotein) (Homo sapiens, UniProt P08183).
T6 construct: gene ABCB1; endogenous transporter in Caco-2 cell monolayers
As to the kind of experiment: transport inhibition in Caco-2 monolayers. The format is cell-based. The source says:
transport inhibition in Caco-2 monolayers on P‐gp (P‐glycoprotein)
A general note: Caco-2 cells form a polarised layer with tight junctions and transporters.

Another data set has as its target T7, MATE2‐K (Homo sapiens, UniProt Q86VL8).
T7 construct: gene SLC47A2; expressed in HEK293 cells
The data set is described as follows: uptake inhibition in HEK293 cells expressing the transporter. The format is cell-based. The source says:
uptake inhibition in HEK293 cells expressing the transporter on MATE2‐K

The next data set has as its target T8, UGT2B7 (Homo sapiens, UniProt P16662).
T8 construct: native enzyme in human liver microsomes
T8 sequence (P16662 24-529): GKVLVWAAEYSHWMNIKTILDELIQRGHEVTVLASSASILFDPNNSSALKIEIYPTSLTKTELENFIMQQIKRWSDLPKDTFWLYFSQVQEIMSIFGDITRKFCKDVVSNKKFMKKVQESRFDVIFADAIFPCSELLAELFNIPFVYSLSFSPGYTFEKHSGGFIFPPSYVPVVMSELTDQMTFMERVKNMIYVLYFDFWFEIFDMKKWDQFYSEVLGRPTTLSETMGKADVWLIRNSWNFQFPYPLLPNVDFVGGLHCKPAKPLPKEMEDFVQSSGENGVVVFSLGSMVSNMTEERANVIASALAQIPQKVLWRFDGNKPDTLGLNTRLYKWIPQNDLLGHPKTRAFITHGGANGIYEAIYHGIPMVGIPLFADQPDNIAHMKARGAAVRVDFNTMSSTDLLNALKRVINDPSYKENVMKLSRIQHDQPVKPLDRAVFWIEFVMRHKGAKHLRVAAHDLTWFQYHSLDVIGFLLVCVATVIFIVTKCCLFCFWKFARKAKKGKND
As to the kind of experiment: glucuronidation inhibition in human liver microsomes. The format is biochemical. To be noted: substrate 3'-azido-3'-deoxythymidine; direct inhibition. From the text:
glucuronidation inhibition in human liver microsomes on UGT2B7

T7 sequence (Q86VL8 1-566 isoform Q86VL8-3): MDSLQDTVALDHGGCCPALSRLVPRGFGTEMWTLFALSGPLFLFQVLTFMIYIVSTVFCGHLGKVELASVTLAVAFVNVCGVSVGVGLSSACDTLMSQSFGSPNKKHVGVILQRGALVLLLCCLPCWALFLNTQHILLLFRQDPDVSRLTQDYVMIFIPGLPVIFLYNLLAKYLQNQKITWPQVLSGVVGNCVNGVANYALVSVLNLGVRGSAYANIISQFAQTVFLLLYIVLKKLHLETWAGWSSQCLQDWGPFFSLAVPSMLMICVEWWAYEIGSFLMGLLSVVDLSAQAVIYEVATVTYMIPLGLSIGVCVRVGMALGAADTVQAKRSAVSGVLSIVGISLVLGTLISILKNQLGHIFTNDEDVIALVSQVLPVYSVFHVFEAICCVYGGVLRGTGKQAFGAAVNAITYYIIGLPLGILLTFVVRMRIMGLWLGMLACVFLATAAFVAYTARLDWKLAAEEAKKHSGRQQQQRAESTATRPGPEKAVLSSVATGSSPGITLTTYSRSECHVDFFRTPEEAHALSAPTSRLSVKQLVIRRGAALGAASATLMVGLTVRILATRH
T6 sequence (P08183 whole entry): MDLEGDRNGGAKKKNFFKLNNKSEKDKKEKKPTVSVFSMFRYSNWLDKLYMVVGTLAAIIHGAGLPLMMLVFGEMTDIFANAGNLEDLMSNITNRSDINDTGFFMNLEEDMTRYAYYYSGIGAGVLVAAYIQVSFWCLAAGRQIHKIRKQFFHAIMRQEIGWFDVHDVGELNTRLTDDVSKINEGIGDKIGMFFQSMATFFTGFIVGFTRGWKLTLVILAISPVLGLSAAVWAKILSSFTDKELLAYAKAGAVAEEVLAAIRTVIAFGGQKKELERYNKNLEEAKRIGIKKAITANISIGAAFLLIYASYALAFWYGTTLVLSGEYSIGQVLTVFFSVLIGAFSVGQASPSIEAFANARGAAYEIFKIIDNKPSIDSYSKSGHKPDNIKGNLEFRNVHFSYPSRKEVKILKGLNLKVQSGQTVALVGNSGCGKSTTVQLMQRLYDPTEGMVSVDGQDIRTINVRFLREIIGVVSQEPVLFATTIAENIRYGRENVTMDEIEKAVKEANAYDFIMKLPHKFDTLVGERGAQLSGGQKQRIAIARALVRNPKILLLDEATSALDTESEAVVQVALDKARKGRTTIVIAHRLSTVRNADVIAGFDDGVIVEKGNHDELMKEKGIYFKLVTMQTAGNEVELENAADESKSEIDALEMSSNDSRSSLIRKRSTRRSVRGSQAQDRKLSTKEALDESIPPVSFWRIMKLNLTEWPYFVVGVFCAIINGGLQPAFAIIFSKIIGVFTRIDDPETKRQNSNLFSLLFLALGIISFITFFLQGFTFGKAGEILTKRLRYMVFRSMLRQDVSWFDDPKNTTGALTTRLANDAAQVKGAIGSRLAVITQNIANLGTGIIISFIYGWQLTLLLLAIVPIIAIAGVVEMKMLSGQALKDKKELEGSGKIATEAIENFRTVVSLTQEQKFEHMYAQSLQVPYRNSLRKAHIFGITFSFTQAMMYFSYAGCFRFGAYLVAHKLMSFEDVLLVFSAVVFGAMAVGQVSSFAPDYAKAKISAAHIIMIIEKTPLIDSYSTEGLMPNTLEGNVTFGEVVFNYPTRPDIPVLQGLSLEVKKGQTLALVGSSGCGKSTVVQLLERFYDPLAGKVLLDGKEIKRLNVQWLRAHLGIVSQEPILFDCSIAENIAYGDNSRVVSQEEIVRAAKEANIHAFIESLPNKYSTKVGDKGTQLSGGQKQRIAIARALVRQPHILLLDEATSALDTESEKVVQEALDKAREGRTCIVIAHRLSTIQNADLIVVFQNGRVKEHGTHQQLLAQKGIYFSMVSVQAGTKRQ
T5 sequence (P08684 2-503): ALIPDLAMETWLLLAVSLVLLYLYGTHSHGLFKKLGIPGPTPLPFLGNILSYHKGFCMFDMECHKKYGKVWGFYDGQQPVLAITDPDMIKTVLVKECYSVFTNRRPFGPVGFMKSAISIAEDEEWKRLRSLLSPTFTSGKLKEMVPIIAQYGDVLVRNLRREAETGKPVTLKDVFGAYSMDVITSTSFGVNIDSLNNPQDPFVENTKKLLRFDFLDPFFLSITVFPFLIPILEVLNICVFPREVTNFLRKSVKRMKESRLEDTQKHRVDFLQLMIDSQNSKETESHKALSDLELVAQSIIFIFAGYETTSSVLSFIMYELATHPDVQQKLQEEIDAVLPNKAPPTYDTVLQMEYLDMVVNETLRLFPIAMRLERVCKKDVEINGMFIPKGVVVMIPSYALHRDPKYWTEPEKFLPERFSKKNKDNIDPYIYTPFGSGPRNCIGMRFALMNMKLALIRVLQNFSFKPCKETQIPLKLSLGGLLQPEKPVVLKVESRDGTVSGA

For the compound `COC[C@H]1CN(C(=O)[C@]2(F)CN(C3CCCC3)C[C@H]2c2ccc(OC)cc2)C[C@@H]1c1ccc(C(F)(F)F)cc1N1CCC(C(=O)O)CC1` [dersimelagon], the IC50 is 5.64 µM against MATE1; 71.2 µM at OAT1; above 100 µM on CYP2D6; 48.9 µM at CYP2B6; 0.349 µM on P‐gp (P‐glycoprotein); above 27.4 µM at MATE2‐K. At UGT2B7, this compound yielded an IC50 above 50 µM. Also, the KI (inactivation) at CYP3A4 (Table 1); CYP3A came out at 64.1 µM.
